In the supplement of paper PMC10627819:
In brackets after ≈: the same amount, converted by molar mass.

Experiments:
S. pneumoniae D39V [1] = experiment: Bliss interaction score (quartile over a dose matrix) (fitness difference); higher = more antagonism (negative = synergy)
Procedure, shortened: (§1)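 Fitness here means normalised growth, inferred for single drugs from the combination data. Growth was OD595 at entry into stationary phase, divided by the plate's robust no-drug mean and capped at 1. The Bliss score is observed minus expected fitness, with the expectation being the product, and its quartiles span technical, biological and donor/recipient replicates.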

S. aureus DSM 20231 [2] = experiment: as above
Procedure, shortened: as §1

B. subtilis 168 [3] = experiment: as above
Procedure, shortened: as §1

S. aureus Newman [4] = experiment: as above
Procedure, shortened: as §1

S. pneumoniae D39V [5] = experiment: fitness (endpoint OD595 vs no drug) (fraction); higher = more growth
Procedure, shortened: (§2)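 Growth medium was TSB, LB Lennox or CY, and plates were kept at 37 °C. Inoculation was at OD595 0.01 in 384-well plates, at 30 µl per well or 55 µl for S. pneumoniae. OD595 was monitored every 30 min for 14 h and background-subtracted using the first reading. Fitness is the optical density on entering stationary phase divided by the robust mean of no-drug controls, with values capped at 1.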

S. aureus DSM 20231 [6] = experiment: as above
Procedure, shortened: as §2

B. subtilis 168 [7] = experiment: as above
Procedure, shortened: as §2

S. aureus Newman [8] = experiment: as above
Procedure, shortened: as §2

S. pneumoniae D39V [9] = test system: S. pneumoniae D39V
S. aureus DSM 20231 [10] = test system: S. aureus DSM 20231
B. subtilis 168 [11] = test system: B. subtilis 168
S. aureus Newman [12] = test system: S. aureus Newman
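For Bliss interaction score (quartile over a dose matrix) in this document: first quartile when negative (synergy) and third quartile when positive (antagonism).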

COc1c(N2C[C@@H]3CCCN[C@@H]3C2)c(F)cc2c(=O)c(C(=O)O)cn(C3CC3)c12 [Moxifloxacin] + Cc1onc(-c2ccccc2)c1C(=O)N[C@@H]1C(=O)N2[C@@H]1SC(C)(C)[C@@H]2C(=O)O [Oxacillin]
Settings	Bliss interaction score
B. subtilis 168 [3]	0.0214
S. aureus DSM 20231 [2]	0.0441
S. aureus Newman [4]	-0.0642
S. pneumoniae D39V [1]	0.0911

Settings	fitness
B. subtilis 168 [7], first compound 0.0312 µg/mL, partner 0.0078 µg/mL	0.064
B. subtilis 168 [7], first compound 0.0312 µg/mL, partner 0.0155 µg/mL	0.0573
B. subtilis 168 [7], first compound 0.0312 µg/mL, partner 0.031 µg/mL	0.0475
B. subtilis 168 [7], first compound 0.0625 µg/mL, partner 0.0078 µg/mL	0.0466
B. subtilis 168 [7], first compound 0.0625 µg/mL, partner 0.0155 µg/mL	0.037
B. subtilis 168 [7], first compound 0.0625 µg/mL, partner 0.031 µg/mL	0.0491
B. subtilis 168 [7], first compound 0.125 µg/mL, partner 0.0078 µg/mL	0.0548
B. subtilis 168 [7], first compound 0.125 µg/mL, partner 0.0155 µg/mL	0.0482
B. subtilis 168 [7], first compound 0.125 µg/mL, partner 0.031 µg/mL	0.0479
B. subtilis 168 [7], first compound 2 µg/mL, partner 0.002 µg/mL	0.0356
B. subtilis 168 [7], first compound 2 µg/mL, partner 0.004 µg/mL	0.0464
B. subtilis 168 [7], first compound 2 µg/mL, partner 0.008 µg/mL	0.0465
B. subtilis 168 [7], first compound 4 µg/mL, partner 0.002 µg/mL	0.0347
B. subtilis 168 [7], first compound 4 µg/mL, partner 0.004 µg/mL	0.0433
B. subtilis 168 [7], first compound 4 µg/mL, partner 0.008 µg/mL	0.0406
B. subtilis 168 [7], first compound 8 µg/mL, partner 0.002 µg/mL	0.0147
B. subtilis 168 [7], first compound 8 µg/mL, partner 0.004 µg/mL	0.021
B. subtilis 168 [7], first compound 8 µg/mL, partner 0.008 µg/mL	0.0219
S. aureus DSM 20231 [6], first compound 0.0075 µg/mL, partner 0.0156 µg/mL	0.665
S. aureus DSM 20231 [6], first compound 0.0075 µg/mL, partner 0.0312 µg/mL	0.623
S. aureus DSM 20231 [6], first compound 0.0075 µg/mL, partner 0.0625 µg/mL	0.483
S. aureus DSM 20231 [6], first compound 0.015 µg/mL, partner 0.0156 µg/mL	0.621
S. aureus DSM 20231 [6], first compound 0.015 µg/mL, partner 0.0312 µg/mL	0.576
S. aureus DSM 20231 [6], first compound 0.015 µg/mL, partner 0.0625 µg/mL	0.475
S. aureus DSM 20231 [6], first compound 0.03 µg/mL, partner 0.0156 µg/mL	0.561
S. aureus DSM 20231 [6], first compound 0.03 µg/mL, partner 0.0312 µg/mL	0.527
S. aureus DSM 20231 [6], first compound 0.03 µg/mL, partner 0.0625 µg/mL	0.417
S. aureus Newman [8], first compound 0.0075 µg/mL, partner 0.0156 µg/mL	0.676
S. aureus Newman [8], first compound 0.0075 µg/mL, partner 0.0312 µg/mL	0.633
S. aureus Newman [8], first compound 0.0075 µg/mL, partner 0.0625 µg/mL	0.515
S. aureus Newman [8], first compound 0.015 µg/mL, partner 0.0156 µg/mL	0.575
S. aureus Newman [8], first compound 0.015 µg/mL, partner 0.0312 µg/mL	0.487
S. aureus Newman [8], first compound 0.015 µg/mL, partner 0.0625 µg/mL	0.417
S. aureus Newman [8], first compound 0.03 µg/mL, partner 0.0156 µg/mL	0.116
S. aureus Newman [8], first compound 0.03 µg/mL, partner 0.0312 µg/mL	0.0437
S. aureus Newman [8], first compound 0.03 µg/mL, partner 0.0625 µg/mL	0.0665
S. pneumoniae D39V [5], first compound 0.0037 µg/mL, partner 0.01 µg/mL	0.885
S. pneumoniae D39V [5], first compound 0.0037 µg/mL, partner 0.02 µg/mL	0.769
S. pneumoniae D39V [5], first compound 0.0037 µg/mL, partner 0.04 µg/mL	0.191
S. pneumoniae D39V [5], first compound 0.005 µg/mL, partner 0.01 µg/mL	0.991
S. pneumoniae D39V [5], first compound 0.005 µg/mL, partner 0.02 µg/mL	1
S. pneumoniae D39V [5], first compound 0.0075 µg/mL, partner 0.01 µg/mL	0.9
S. pneumoniae D39V [5], first compound 0.0075 µg/mL, partner 0.02 µg/mL	0.784
S. pneumoniae D39V [5], first compound 0.0075 µg/mL, partner 0.04 µg/mL	0.198
S. pneumoniae D39V [5], first compound 0.01 µg/mL, partner 0.01 µg/mL	0.993
S. pneumoniae D39V [5], first compound 0.01 µg/mL, partner 0.02 µg/mL	0.983
S. pneumoniae D39V [5], first compound 0.015 µg/mL, partner 0.01 µg/mL	0.84
S. pneumoniae D39V [5], first compound 0.015 µg/mL, partner 0.02 µg/mL	0.814
S. pneumoniae D39V [5], first compound 0.015 µg/mL, partner 0.04 µg/mL	0.276
S. pneumoniae D39V [5], first compound 0.02 µg/mL, partner 0.01 µg/mL	0.993
S. pneumoniae D39V [5], first compound 0.02 µg/mL, partner 0.02 µg/mL	0.978

fitness, one replicate
Settings	partner 0.0156 µg/mL	partner 0.0312 µg/mL	partner 0.0625 µg/mL	partner 0.075 µg/mL	partner 0.15 µg/mL	partner 0.3 µg/mL
B. subtilis 168 [7], first compound 0.0312 µg/mL	–	–	–	0.0346	0.0314	0.0247
B. subtilis 168 [7], first compound 0.0625 µg/mL	–	–	–	0.0324	0.0252	0.0441
B. subtilis 168 [7], first compound 0.125 µg/mL	–	–	–	0.0269	0.0127	0.018
S. aureus DSM 20231 [6], first compound 0.06 µg/mL	0.628	0.559	0.524	–	–	–
S. aureus DSM 20231 [6], first compound 0.12 µg/mL	0.441	0.379	0.37	–	–	–

O=C1CN(/N=C/c2ccc([N+](=O)[O-])o2)C(=O)N1 [Nitrofurantoin]
S. pneumoniae D39V [5]
Settings	fitness
2 µg/mL	0.941
4 µg/mL	0.888
8 µg/mL	0.724

Settings	MIC [µg/mL]
B. subtilis 168 [11]	16 (≈ 67.2 µM)
S. aureus DSM 20231 [10]	8.89 (≈ 37.3 µM)
S. aureus Newman [12]	10 (≈ 42 µM)
S. pneumoniae D39V [9]	16 (≈ 67.2 µM)

C/C(=C\C(=O)OCCCCCCCCC(=O)O)C[C@@H]1OC[C@H](C[C@@H]2O[C@H]2[C@@H](C)[C@H](C)O)[C@@H](O)[C@H]1O [Pseudomonic acid]
S. pneumoniae D39V [5]
Settings	fitness
0.03 µg/mL	0.971
0.06 µg/mL	0.822
0.12 µg/mL	0.443

Settings	MIC [µg/mL]
S. pneumoniae D39V [9]	0.25 (≈ 0.499 µM)

CCCCCCCCCC(=O)N[C@H]1[C@H](Oc2c3cc4cc2Oc2ccc(cc2Cl)[C@@H](O[C@@H]2O[C@H](CO)[C@@H](O)[C@H](O)[C@H]2NC(C)=O)[C@@H]2NC(=O)[C@H](NC(=O)[C@@H]4NC(=O)[C@H]4NC(=O)[C@@H](Cc5ccc(c(Cl)c5)O3)NC(=O)[C@H](N)c3ccc(O)c(c3)Oc3cc(O)cc4c3)c3ccc(O)c(c3)-c3c(O[C@H]4O[C@H](CO)[C@@H](O)[C@H](O)[C@@H]4O)cc(O)cc3[C@@H](C(=O)O)NC2=O)O[C@H](CO)[C@@H](O)[C@@H]1O [Teicoplanin]
fitness, main component drawn
Settings	0.1562 µg/mL	0.3125 µg/mL	0.625 µg/mL	1.25 µg/mL
S. aureus DSM 20231 [6]	≥ 1	≥ 1	≥ 1	≥ 1
S. aureus Newman [8]	≥ 1	≥ 1	≥ 1	–

main component drawn
Settings	MIC [µg/mL]
S. aureus DSM 20231 [10]	0.7 (≈ 0.372 µM)
S. aureus Newman [12]	0.7 (≈ 0.372 µM)
S. pneumoniae D39V [9]	0.062 (≈ 0.033 µM)

COc1cc(Cc2cnc(N)nc2N)cc(OC)c1OC [Trimethoprim]
fitness
Settings	0.125 µg/mL	0.25 µg/mL	0.5 µg/mL	1 µg/mL	2 µg/mL
B. subtilis 168 [7]	0.623	0.478	0.45	0.334	0.31
S. aureus DSM 20231 [6]	0.8	0.662	0.143	–	–
S. aureus Newman [8]	0.857	0.725	0.248	–	–
S. pneumoniae D39V [5]	–	–	0.924	0.658	0.306

Settings	MIC [µg/mL]
B. subtilis 168 [11]	2.5 (≈ 8.61 µM)
S. pneumoniae D39V [9]	4 (≈ 13.8 µM)

CN[C@H](CC(C)C)C(=O)N[C@H]1C(=O)N[C@@H](CC(N)=O)C(=O)N[C@H]2C(=O)N[C@H]3C(=O)N[C@H](C(=O)N[C@H](C(=O)O)c4cc(O)cc(O)c4-c4cc3ccc4O)[C@H](O)c3ccc(c(Cl)c3)Oc3cc2cc(c3O[C@@H]2O[C@H](CO)[C@@H](O)[C@H](O)[C@H]2O[C@H]2C[C@](C)(N)[C@H](O)[C@H](C)O2)Oc2ccc(cc2Cl)[C@H]1O [Vancomycin]
Settings	fitness
B. subtilis 168 [7], 0.0468 µg/mL	0.997
B. subtilis 168 [7], 0.0935 µg/mL	0.924
B. subtilis 168 [7], 0.0938 µg/mL	0.853
B. subtilis 168 [7], 0.187 µg/mL	0.0481
B. subtilis 168 [7], 0.1875 µg/mL	0.169
B. subtilis 168 [7], 0.375 µg/mL	0.0404
S. aureus DSM 20231 [6], 0.1875 µg/mL	≥ 1
S. aureus DSM 20231 [6], 0.375 µg/mL	≥ 1
S. aureus DSM 20231 [6], 0.5 µg/mL	0.981
S. aureus DSM 20231 [6], 0.75 µg/mL	≥ 1
S. aureus DSM 20231 [6], 1 µg/mL	0.977
S. aureus DSM 20231 [6], 2 µg/mL	0.992
S. aureus Newman [8], 0.1875 µg/mL	≥ 1
S. aureus Newman [8], 0.375 µg/mL	0.99
S. aureus Newman [8], 0.75 µg/mL	0.999
S. pneumoniae D39V [5], 0.125 µg/mL	0.97
S. pneumoniae D39V [5], 0.25 µg/mL	0.489
S. pneumoniae D39V [5], 0.5 µg/mL	0.159

Settings	MIC [µg/mL]
B. subtilis 168 [11]	0.375 (≈ 0.259 µM)
S. pneumoniae D39V [9]	0.3 (≈ 0.207 µM)
